# Experimental data as given in patent publication US11903386B2, “Strigolactone analogs and their usage in plant control” (King Abdullah University of Science and Technology, priority 2016, dated 2024).
# “Also recorded” adds a separate entry of the source. Read-outs that look alike come from different tables or passages of the source.
# Columns and labels:
# OsD14 [1] = target: T1, OsD14 (Oryza sativa subsp. japonica, UniProt Q10QA5); experiment: YLG (Yoshimulactone Green) competitive hydrolysis assay; type: biochemical, rice
# T1 construct: made in house; host or cells: E. coli BL21 (DE3)
# T1 sequence (Q10QA5 1-318): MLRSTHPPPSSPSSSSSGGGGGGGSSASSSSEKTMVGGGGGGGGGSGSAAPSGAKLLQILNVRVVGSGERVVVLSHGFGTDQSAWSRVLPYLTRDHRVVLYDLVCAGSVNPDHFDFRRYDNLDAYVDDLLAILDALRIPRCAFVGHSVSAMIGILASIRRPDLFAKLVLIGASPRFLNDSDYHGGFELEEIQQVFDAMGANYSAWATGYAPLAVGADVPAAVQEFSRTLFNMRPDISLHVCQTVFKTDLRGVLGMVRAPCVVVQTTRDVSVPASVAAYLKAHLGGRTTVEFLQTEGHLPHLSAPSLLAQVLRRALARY
# Text: Striga hermonthica ShHTL7 cDNA, GenBank accession KR013127 was kindly provided by Prof. Tadao Asami (The University of Tokyo, Japan). Arabidopsis thaliana D14 (AtD14) cDNA, GenBank accession AY097402 was synthesized and cloned into pUC57 (GenScript). ShHTL7 and OsD14 cDNAs were amplified by RT-PCR using the primers shown in Table 2, digested with BamHI and XhoI, and ligated into BamHI/XhoI digested pGEX-6P-1 expression vector (GE Healthcare). Integrity of plasmids was confirmed by sequencing (KAUST Bioscience Core Lab). The plasmids were then transformed into E. coli BL21 (DE3) cells. The cells were grown in LB broth containing ampicillin ([…]), incubated at 37° C. until OD600 of 0.6 and induced with 0.1 mM isopropyl-β-D-thiogalactopyranoside (IPTG) at 16° C. for 16 h. Harvested cells were re-suspended in lysis buffer: 50 mM Tris-HCl (pH 8.0), 200 mM NaCl, 0.5% Tween-20 and 2 mM dithiothreitol (DTT). After sonication on ice for 10 mins, the lysate was centrifuged at 25,000 rpm for 30 min at 4° C. Supernatant was allowed to bind to glutathione-sepharose beads (GE Healthcare) for 2 h at 4° C., washed 3 times with buffer (50 mM Tris-HCl (pH 8.0), 200 mM NaCl, 2 mM DTT), and eluted by cleaving GST moiety with PreScission™ Protease (GE Healthcare) at 4° C. overnight. Eluted protein was further purified by gel filtration using HiLoad 16/60 Superdex200 prep grade column (GE Healthcare) on an AKTA prime system (GE Healthcare) in gel filtration buffer (10 mM HEPES pH 7.5, 50 mM KCl and 2 mM DTT). Protein eluted as a sharp single peak and purity was judged by 4-15% SDS-PAGE (Bio-Rad). Purified protein was concentrated using an Amicon 10K filter unit (Merck Millipore) and stored at −80° C. until use. Similar expression and purification protocol was followed for OsD14 protein, except that OsD14 was eluted from Glutathione resins using 0.2 mM reduced Glutathione (Sigma) without cutting GST tag.
# In vitro YLG hydrolysis assays were performed as described by Tsuchiya et al., 2015. Hydrolysis assays were carried out using 0.15 μM of recombinant protein OsD14 in a reaction buffer (100 mM PBS buffer, pH 7.3) with 0.1% dimethylsulfoxide (DMSO) at a 300 μl volume on a 96-well black plate (Thermo). For competitive assays, (±) GR24 and (±) MPs at range between 0.03 to 10 μM (or 100 μM) were co-incubated with 0.3 μM of YLG and reacted at 30° C. incubator for 15 min. Fluorescent intensity was measured with excitation at 485 nm and detected at 535 nm. IC50 values were calculated online (http://www.ic50.tk/index.html). Later, values were converted to the existing conditions when treated by 1.0 μM of recombinant proteins.
# Arabidopsis seedlings = experiment: Arabidopsis lateral root density and primary root length; type: in vivo; conditions: 1.0 μM, 8 days old seedlings
# Experimental: Sterilized Arabidopsis seeds were sown on half strength MS (with 0.5% sucrose+1% agar, 0.5 g L^−1 MES, pH 5.7) plates supplemented with GR24 or MPs (at 1.0 μM). Plates were stored at 4° C. in darkness for 3 days and then vertically grown at 22° C. in Percival incubator under long day condition (16 h at 22° C./8 h at 16° C. day/night, 60% relative humidity, 4000-5000 LUX white light) for 8 days. For determining the effect on lateral root density and primary root length, at least 30 seedlings were measured using publically available ImageJ software (http://rsbweb.nih.gov/ij/) after scanning roots.
# OsD14 [2] = target: T1, OsD14; experiment: In vitro hydrolysis assay with OsD14 (HPLC); type: biochemical, rice; conditions: 10 μM substrate, 37° C.
# Text: Striga hermonthica ShHTL7 cDNA, GenBank accession KR013127 was kindly provided by Prof. Tadao Asami (The University of Tokyo, Japan). Arabidopsis thaliana D14 (AtD14) cDNA, GenBank accession AY097402 was synthesized and cloned into pUC57 (GenScript). ShHTL7 and OsD14 cDNAs were amplified by RT-PCR using the primers shown in Table 2, digested with BamHI and XhoI, and ligated into BamHI/XhoI digested pGEX-6P-1 expression vector (GE Healthcare). Integrity of plasmids was confirmed by sequencing (KAUST Bioscience Core Lab). The plasmids were then transformed into E. coli BL21 (DE3) cells. The cells were grown in LB broth containing ampicillin ([…]), incubated at 37° C. until OD600 of 0.6 and induced with 0.1 mM isopropyl-β-D-thiogalactopyranoside (IPTG) at 16° C. for 16 h. […]
# The hydrolysis of GR24 and MPs by ShHTL7/OsD14 was performed in a total volume of 0.5 ml of PBS buffer containing 10 μM of substrate. […] Hydrolysis of substrates was monitored by HPLC analysis using an Zorbax Eclipse Plus C18 column (3.5 μm, 2.1×150 mm), eluted by a gradient from 10% to 90% acetonitrile in water within 15 min and keeping final condition for 4 min. […] Eluted compounds were detected using a Diode Array Detector. Amounts of remaining substrates were determined by calculating corresponding peaks, in comparison to that of internal standard.
# [3] = test system: rice seedlings (Shiokari, d3, d10); experiment: Growth and fresh biomass of hydroponically grown rice seedlings; type: in vivo; conditions: 2.5 μM, twice a week for three weeks
# Experimental: Rice seeds (WT, d3, d10) were surface-sterilized by washing with 70% ethanol for 1 min and then with 2.5% sodium hypochlorite for 15 min. Seeds were then rinsed thoroughly with sterile MilliQ water and incubated in water for 2 days at 30° C. in the dark. Pre-germinated seeds were transferred to filter papers containing ½ strength MS medium in 90 mm petri dishes and incubated at 30° C. under fluorescent white light (130-180 μM m^−2 s^−1) for one week. Seven day-old seedlings were transferred to 50 ml falcon tubes (one seedling per tube) containing modified half-strength Hoagland nutrient solution and grown in greenhouse. Plants were treated with MPs at 2.5 μM-2.5×10-7 μM, using GR24 as positive control. The compounds were applied six times, twice a week. Number of tillers per plant, plant height and fresh biomass were measured at final harvest.
SMILES,"IC50 (OsD14 [1]; with SE (n=3), read-out: IC50, competitive inhibition of OsD14 mediated YLG hydrolysis) [µM]",Increase of primary root length (Arabidopsis seedlings),Reduction of number of lateral roots / lateral root density (Arabidopsis seedlings),Hydrolysis rate by OsD14 (OsD14 [2]),IC50 (OsD14 [1]) [µM],"Growth, senescence symptoms and biomass of rice seedlings [3]"
"COC(=O)/C(=C/OC1C=C(C)C(=O)O1)c1ccc([N+](=O)[O-])cc1 (racemic) [MP1, (E)-methyl 3-(4-methyl-5-oxo-2,5-dihydrofuran-2-yloxy)-2-(4-nitrophenyl)acrylate]",2.41 ± 0.175,the most active compound; also recorded: more efficient than GR24,activity higher than that of GR24; also recorded: more efficient than GR24,highest hydrolysis rate,–,–
"COC(=O)/C(=C/OC1C=C(C)C(=O)O1)c1ccccc1 (racemic) [MP3, (E)-methyl 3-(4-methyl-5-oxo-2,5-dihydrofuran-2-yloxy)-2-phenylacrylate]",–,weaker activity than GR24 and MP8,–,finally MP3,10.1 ± 2.94,stunted the growth and caused senescence symptoms; also recorded: growth retardation and senescence
COC(=O)/C(=C/OC1C=C(C)C(=O)O1)c1ccc(Cl)cc1 (centres unmarked) [MP7],–,more efficient than GR24,slightly more active than GR24; also recorded: more efficient than GR24,–,4.46 ± 0.8,–
